Assay results reported in patent US11572337B2, “Antibacterial agents: arylalkylcarboxamido phloroglucinols” (Rutgers, The State University of New Jersey, priority 2018, dated 2023).
Converted amounts (≈) assume the structure as drawn.

Assays:
[1] = system: methicillin-resistant Staphylococcus aureus (MRSA) strain BAA-1707 (USA-400, MW2); experiment: Antibacterial efficacy in mouse model of Staphylococcus aureus systemic infection (peritonitis model); conditions: female Swiss Webster mice, intravenous injection 0 h post-infection, dose resulting in 50% survival at 72 h (probit), read-out: in vivo antibacterial activity mouse MRSA peritonitis ED50
Experimental: Female Swiss Webster mice ([…]) were experimentally infected by intraperitoneal administration of 1×10^7 colony forming units of methicillin-resistant Staphylococcus aureus (MRSA) strain BAA-1707 (USA-400, MW2) in 5% hog gastric mucin. Test compounds in vehicle (5% dimethylacetamide and 4% cremophor EL in 10 mM sodium phosphate, pH 8), positive control (linezolid in vehicle), and negative control (vehicle only), were administered by intravenous injection into a tail vein (200 μl) 0 h post-infection. Identities of test compounds and controls were blinded from personnel performing injections and monitoring survival. The protective dose 50 (PD50) was defined as the test-compound dose resulting in 50% survival at 72 h (calculated using the probit method).

[2] = biological target: S. aureus RNA polymerase core enzyme + S. aureus σA (Staphylococcus aureus (strain NCTC 8325 / PS 47), UniProt P47768+Q2G0N5); experiment: Fluorescence-detected assay of inhibition of Staphylococcus aureus RNA polymerase; format: biochemical; conditions: T4 N25 promoter DNA, RiboGreen fluorescence, read-out: RNAP-inhibitory activity S. aureus RNAP IC50
Experimental: (§1) Fluorescence-detected RNA polymerase assays with E. coli RNA polymerase were performed by a modification of the procedure of Kuhlman et al., 2004 [Kuhlman, P., Duff, H. & Galant, A. (2004) A fluorescence-based assay for multisubunit DNA-dependent RNA polymerases. Anal. Biochem. 324, 183-190]. Reaction mixtures contained […]: […] test salt, 75 nM E. coli RNA polymerase σ^70 holoenzyme, 20 nM 384 bp DNA fragment containing the bacteriophage T4 N25 promoter, 100 μM ATP, 100 μM GTP, 100 μM UTP, 100 μM CTP, 50 mM Tris-HCl, pH 8.0, 100 mM KCl, 10 mM MgCl2, 1 mM DTT, 10 μg/ml bovine serum albumin, and 5.5% glycerol. Reaction components other than DNA and NTPs were pre-incubated for 10 min at 37° C. Reactions were carried out by addition of DNA and incubation for 5 min at 37° C., followed by addition of NTPs and incubation for 60 min at 37° C. DNA was removed by addition of 1 μl 5 mM CaCl2 and 2 U DNaseI (Ambion, Inc.), followed by incubation for 90 min at 37° C. RNA was quantified by addition of 100 μI RiboGreen RNA Quantitation Reagent (Invitrogen, Inc.; 1:500 dilution in Tris-HCl, pH 8.0, 1 mM EDTA), followed by incubation for 10 min at 25° C., followed by measurement of fluorescence intensity [excitation wavelength=485 nm and emission wavelength=535 nm; QuantaMaster QM1 spectrofluorometer (PTI, Inc.)]. IC50 is defined as the concentration of inhibitor resulting in 50% inhibition of RNA polymerase activity.
Fluorescence-detected RNA polymerase assays with S. aureus RNA polymerase were performed as in Example 2.1, using reaction mixtures containing (20 μl): 0-100 nM test salt, 75 nM S. aureus RNA polymerase core enzyme, 300 nM S. aureus σ^A, 20 nM 384 bp DNA fragment containing the bacteriophage T4 N25 promoter, 100 μM ATP, 100 μM GTP, 100 μM UTP, 100 μM CTP, 40 mM Tris-HCl, pH 8.0, 80 mM NaCl, 5 mM MgCl2, 2.5 mM DTT, and 12.7% glycerol. IC50 is defined as the concentration of inhibitor resulting in 50% inhibition of RNA polymerase activity.

[3] = system: Staphylococcus aureus ATCC 12600; experiment: Inhibition of growth of Staphylococcus aureus (spiral gradient endpoint MIC assay); format: cell-based; conditions: ATCC12600, Mueller-Hinton II cation-adjusted agar, 16 h at 37° C., read-out: in vitro antibacterial activity S. aureus ATCC12600 MIC
Text: Minimum inhibitory concentrations (MICs for Staphylococcus aureus ATCC 12600 were quantified using spiral gradient endpoint assays, essentially as described [Wallace, A. and Corkill, J. (1989) Application of the spiral plating method to study antimicrobial action. J. Microbiol. Meths. 10, 303-310; Paton, J., Holt, A., and Bywater, M. (1990) Measurement of MICs of antibacterial agents by spiral gradient endpoint compared with conventional dilution methods. Int. I Exp. Clin. Chemother. 3, 31-38; Schalkowsky S. (1994) Measures of susceptibility from a spiral gradient of drug concentrations. Adv. Exp. Med. Biol. 349, 107-120]. Assays employed exponential-gradient plates containing 150 mm×4 mm Mueller-Hinton II cation-adjusted agar and 0.4-100 μg/ml of test salt. Plates were prepared using an Autoplate 4000 spiral plater (Spiral Biotech, Inc.). Saturated overnight cultures were swabbed radially onto plates, and plates were incubated for 16 h at 37° C. For each culture, the streak length was measured using a clear plastic template (Spiral Biotech, Inc.), the test-salt concentration at the streak endpoint was calculated using the program SGE (Spiral Biotech, Inc.), and the MIC was defined as the calculated test-salt concentration at the streak endpoint.

[4] = biological target: E. coli RNA polymerase σ70 holoenzyme (Escherichia coli (strain K12), UniProt P0A8T7+P0A8V2); experiment: Fluorescence-detected assay of inhibition of Escherichia coli RNA polymerase; format: biochemical; conditions: T4 N25 promoter DNA, RiboGreen fluorescence, read-out: RNAP-inhibitory activity E. coli RNAP IC50
Experimental: as §1

Structure (SMILES) | ED50 [1] [mg/kg] | IC50 [2] [µM] | MIC [3] [µg/mL] | IC50 [4] [µM]
O=C(NCCc1ccc(Oc2ccccc2)cc1)c1c(O)cc(O)cc1O [Compound 0MTK148, 2,4,6-trihydroxy-N-(4-phenoxyphenethyl)benzamide] | 2.5 | 3.9 | 19 (≈ 52 µM) | 0.8
O=C(NCCc1ccc(C(F)(F)F)cc1C(F)(F)F)c1c(O)cc(O)cc1O [Compound 0MTK208, N-(2,4-bis(trifluoromethyl)phenethyl)-2,4,6-trihydroxybenzamide] | – | 5 | 11 (≈ 26.9 µM) | 7.2
O=C(NCCc1ccc(Cl)cc1)c1c(O)c(Cl)c(O)c(Cl)c1O [Compound 0MTK221, 3,5-dichloro-N-(4-chlorophenethyl)-2,4,6-trihydroxybenzamide] | – | 98 | > 40 | 14
O=C(NCCc1ccc(Cl)cc1)c1c(O)cc(O)c(Cl)c1O [Compound 0MTK222, 3-chloro-N-(4-chlorophenethyl)-2,4,6-trihydroxybenzamide] | – | 9 | > 40 | 6.8
O=C(NCCc1ccc(C(F)(F)F)cc1)c1c(O)cc(O)c(Cl)c1O [Compound 0MTK223, 3-chloro-2,4,6-trihydroxy-N-(4-(trifluoromethyl)phenethyl)benzamide] | – | 10 | > 40 | 6.6
O=C(NCCc1ccc(C(F)(F)F)cc1)c1c(O)c(Cl)c(O)c(Cl)c1O [Compound 0MTK224, 3,5-dichloro-2,4,6-trihydroxy-N-(4-(trifluoromethyl)phenethyl)benzamide] | – | > 100 | > 40 | 25
O=C(NCCc1ccc(Oc2ccccc2)cc1)c1c(O)c(Cl)c(O)c(Cl)c1O [Compound 0MTK230, 3,5-dichloro-2,4,6-trihydroxy-N-(4-phenoxyphenethyl)benzamide] | – | 35 | > 40 | 7.7
O=C(NCCc1ccc(Oc2ccc(F)cc2)cc1)c1c(O)c(Cl)c(O)c(Cl)c1O [Compound 0MTK231, 3,5-dichloro-N-(4-(4-fluorophenoxy)phenethyl)-2,4,6-trihydroxybenzamide] | – | 31 | 33 (≈ 73 µM) | 8.4
O=C(NCCc1ccc(Oc2ccc(Cl)cc2)cc1)c1c(O)cc(O)c(Cl)c1O [Compound 0MTK232, 3-chloro-N-(4-(4-chlorophenoxy)phenethyl)-2,4,6-trihydroxybenzamide] | – | 8 | 20 (≈ 46.1 µM) | 0.72
O=C(NCCc1ccc(Oc2ccc(Cl)cc2)cc1)c1c(O)c(Cl)c(O)c(Cl)c1O [Compound 0MTK233, 3,5-dichloro-N-(4-(4-chlorophenoxy)phenethyl)-2,4,6-trihydroxybenzamide] | – | 23 | 6.8 (≈ 14.5 µM) | 4.5
O=C(NCCc1ccc(Oc2cc(Cl)cc(Cl)c2)cc1)c1c(O)cc(O)c(Cl)c1O [Compound 0MTK237, 3-chloro-N-(4-(3,5-dichlorophenoxy)phenethyl)-2,4,6-trihydroxybenzamide] | – | 3 | 15 (≈ 32 µM) | 0.31
O=C(NCCc1ccc(Oc2cc(Cl)cc(Cl)c2)cc1)c1c(O)c(Cl)c(O)c(Cl)c1O [Compound 0MTK238, 3,5-dichloro-N-(4-(3,5-dichlorophenoxy)phenethyl)-2,4,6-trihydroxybenzamide] | – | 3 | 3.2 (≈ 6.36 µM) | 0.77
O=C(NCCc1ccc(Oc2ccc(F)cc2)cc1)c1c(O)cc(O)c(Cl)c1O [Compound 0MTK240, 3-chloro-N-(4-(4-fluorophenoxy)phenethyl)-2,4,6-trihydroxybenzamide] | – | 15 | > 40 | 2.1
O=C(NCCc1ccc(Oc2cccc(Cl)c2)cc1)c1c(O)cc(O)cc1O [Compound 0MTK256, N-(4-(3-chlorophenoxy)phenethyl)-2,4,6-trihydroxybenzamide] | – | 10 | 9.1 (≈ 22.8 µM) | 0.65
Cc1ccc(Oc2ccc(CCNC(=O)c3c(O)cc(O)cc3O)cc2)cc1 [Compound 0MTK257, 2,4,6-trihydroxy-N-(4-(p-tolyloxy)phenethyl)benzamide] | – | 11 | 20 (≈ 52.7 µM) | 0.8
CCC1=C(O)C(CC)(CC)C(=O)C(C(=O)NCCc2ccc(Oc3ccc(F)cc3)cc2)=C1O [Compound 3RKHTK161, 3,5,5-triethyl-N-(4-(4-fluorophenoxy)phenethyl)-2,4-dihydroxy-6-oxocyclohexa-1,3-dienecarboxamide] | – | 13 | 2.8 (≈ 5.99 µM) | 3.3
